Columns and labels:
JAK1 = JAK1 (Homo sapiens (Human), UniProt P23458); experiment: Biochemical JAK1 kinase assay (LanthaScreen)
Procedure, shortened: (§1)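 GST-JAK + GFP-STAT1 peptide, HEPES pH 7.5/MgCl2/EGTA/Brij-35 buffer; cpd preincubation 1 h RT; ATP start, 1 h RT; stop with 10 mM EDTA + 2 nM Tb-anti-pSTAT1; TR-FRET 520/495. 4-parameter IC50 → pKi (Cheng-Prusoff).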

JAK2 = JAK2 (Homo sapiens (Human), UniProt O60674); experiment: Biochemical JAK2 kinase assay (LanthaScreen)
Procedure, shortened: as §1

JAK3 = JAK3 (Homo sapiens (Human), UniProt P52333); experiment: Biochemical JAK3 kinase assay (LanthaScreen)
Procedure, shortened: as §1

Tyk2 = Tyk2 (Homo sapiens (Human), UniProt P29597); experiment: Biochemical Tyk2 kinase assay (LanthaScreen)
Procedure, shortened: as §1

[1] = test system: IL-2 stimulated STAT5 phosphorylation in Tall-1 human T cell line (JAK3); experiment: Cellular JAK3 potency assay: inhibition of IL-2 stimulated pSTAT5 in Tall-1 T cells; format: cell-based
Procedure, shortened: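 Tall-1 cells, 45,000 per well, preincubated 1 hour with compound at 37 °C, then stimulated 30 minutes with IL-2 at 300 ng/ml final. pSTAT5 (Tyr694/699) in lysates quantified by AlphaLISA SureFire Ultra. pIC50 derived from inhibition curves, given as mean with SD.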

[2] = selectivity JAK3 over JAK1, difference of pKi
[3] = IL-2 stimulated pSTAT5, Tall-1 T cells

JAK3, sequence (P52333 whole entry): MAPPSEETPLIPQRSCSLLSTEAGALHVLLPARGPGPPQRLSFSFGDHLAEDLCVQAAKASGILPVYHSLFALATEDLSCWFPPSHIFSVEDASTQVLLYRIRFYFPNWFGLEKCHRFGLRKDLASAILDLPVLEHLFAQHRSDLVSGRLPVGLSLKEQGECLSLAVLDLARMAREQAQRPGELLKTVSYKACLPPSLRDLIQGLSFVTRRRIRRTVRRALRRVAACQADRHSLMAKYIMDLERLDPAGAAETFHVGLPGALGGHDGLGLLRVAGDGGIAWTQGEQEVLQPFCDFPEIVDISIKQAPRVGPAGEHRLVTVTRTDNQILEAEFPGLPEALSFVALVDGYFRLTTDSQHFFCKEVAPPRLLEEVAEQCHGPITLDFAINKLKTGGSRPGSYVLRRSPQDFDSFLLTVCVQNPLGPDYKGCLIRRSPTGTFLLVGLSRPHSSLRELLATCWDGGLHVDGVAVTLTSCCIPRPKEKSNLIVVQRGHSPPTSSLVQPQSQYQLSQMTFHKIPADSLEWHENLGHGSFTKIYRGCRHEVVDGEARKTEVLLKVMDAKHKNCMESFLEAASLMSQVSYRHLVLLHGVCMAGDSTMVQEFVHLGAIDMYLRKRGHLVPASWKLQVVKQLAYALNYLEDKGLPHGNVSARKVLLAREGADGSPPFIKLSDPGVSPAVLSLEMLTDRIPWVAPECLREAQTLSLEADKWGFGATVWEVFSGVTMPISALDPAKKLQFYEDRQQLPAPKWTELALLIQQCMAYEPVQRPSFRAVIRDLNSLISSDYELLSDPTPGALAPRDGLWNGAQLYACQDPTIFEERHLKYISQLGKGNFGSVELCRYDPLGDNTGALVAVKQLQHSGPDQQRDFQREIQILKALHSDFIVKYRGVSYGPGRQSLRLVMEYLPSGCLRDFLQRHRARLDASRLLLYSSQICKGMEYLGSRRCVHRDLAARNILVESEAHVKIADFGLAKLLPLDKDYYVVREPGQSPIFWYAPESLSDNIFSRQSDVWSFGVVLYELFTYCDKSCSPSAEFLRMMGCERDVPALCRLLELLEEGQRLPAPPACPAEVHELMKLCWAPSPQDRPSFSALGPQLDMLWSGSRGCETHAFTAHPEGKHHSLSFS
JAK2, sequence (O60674 whole entry): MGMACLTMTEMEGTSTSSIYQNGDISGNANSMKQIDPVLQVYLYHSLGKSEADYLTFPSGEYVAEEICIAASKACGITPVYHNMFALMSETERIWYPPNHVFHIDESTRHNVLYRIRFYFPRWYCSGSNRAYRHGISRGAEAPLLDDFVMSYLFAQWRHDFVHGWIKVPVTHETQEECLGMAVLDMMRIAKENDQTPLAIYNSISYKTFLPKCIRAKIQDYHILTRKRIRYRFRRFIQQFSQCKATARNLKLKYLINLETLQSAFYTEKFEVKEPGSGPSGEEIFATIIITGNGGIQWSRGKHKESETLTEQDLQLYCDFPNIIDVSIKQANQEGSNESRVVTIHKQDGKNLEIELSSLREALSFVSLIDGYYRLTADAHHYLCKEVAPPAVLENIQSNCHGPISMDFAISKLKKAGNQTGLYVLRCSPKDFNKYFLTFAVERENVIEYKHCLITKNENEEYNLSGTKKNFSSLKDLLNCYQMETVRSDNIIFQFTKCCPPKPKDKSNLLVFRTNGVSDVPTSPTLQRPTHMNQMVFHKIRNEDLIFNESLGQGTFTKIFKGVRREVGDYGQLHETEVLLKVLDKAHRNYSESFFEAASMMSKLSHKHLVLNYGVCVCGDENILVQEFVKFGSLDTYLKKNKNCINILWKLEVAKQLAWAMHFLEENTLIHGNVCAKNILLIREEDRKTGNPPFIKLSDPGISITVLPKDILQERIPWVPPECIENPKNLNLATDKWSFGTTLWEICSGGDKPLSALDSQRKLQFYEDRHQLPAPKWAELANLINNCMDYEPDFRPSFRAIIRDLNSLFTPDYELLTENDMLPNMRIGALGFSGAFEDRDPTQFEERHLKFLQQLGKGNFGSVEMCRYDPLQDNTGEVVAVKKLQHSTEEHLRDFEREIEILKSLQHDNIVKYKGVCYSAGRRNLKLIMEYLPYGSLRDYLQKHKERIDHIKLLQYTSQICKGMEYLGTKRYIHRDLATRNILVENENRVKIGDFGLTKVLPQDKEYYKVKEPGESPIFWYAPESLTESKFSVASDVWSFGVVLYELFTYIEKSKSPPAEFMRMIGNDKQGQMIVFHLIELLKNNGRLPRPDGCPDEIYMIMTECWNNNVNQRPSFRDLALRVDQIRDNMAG
JAK1, sequence (P23458 whole entry): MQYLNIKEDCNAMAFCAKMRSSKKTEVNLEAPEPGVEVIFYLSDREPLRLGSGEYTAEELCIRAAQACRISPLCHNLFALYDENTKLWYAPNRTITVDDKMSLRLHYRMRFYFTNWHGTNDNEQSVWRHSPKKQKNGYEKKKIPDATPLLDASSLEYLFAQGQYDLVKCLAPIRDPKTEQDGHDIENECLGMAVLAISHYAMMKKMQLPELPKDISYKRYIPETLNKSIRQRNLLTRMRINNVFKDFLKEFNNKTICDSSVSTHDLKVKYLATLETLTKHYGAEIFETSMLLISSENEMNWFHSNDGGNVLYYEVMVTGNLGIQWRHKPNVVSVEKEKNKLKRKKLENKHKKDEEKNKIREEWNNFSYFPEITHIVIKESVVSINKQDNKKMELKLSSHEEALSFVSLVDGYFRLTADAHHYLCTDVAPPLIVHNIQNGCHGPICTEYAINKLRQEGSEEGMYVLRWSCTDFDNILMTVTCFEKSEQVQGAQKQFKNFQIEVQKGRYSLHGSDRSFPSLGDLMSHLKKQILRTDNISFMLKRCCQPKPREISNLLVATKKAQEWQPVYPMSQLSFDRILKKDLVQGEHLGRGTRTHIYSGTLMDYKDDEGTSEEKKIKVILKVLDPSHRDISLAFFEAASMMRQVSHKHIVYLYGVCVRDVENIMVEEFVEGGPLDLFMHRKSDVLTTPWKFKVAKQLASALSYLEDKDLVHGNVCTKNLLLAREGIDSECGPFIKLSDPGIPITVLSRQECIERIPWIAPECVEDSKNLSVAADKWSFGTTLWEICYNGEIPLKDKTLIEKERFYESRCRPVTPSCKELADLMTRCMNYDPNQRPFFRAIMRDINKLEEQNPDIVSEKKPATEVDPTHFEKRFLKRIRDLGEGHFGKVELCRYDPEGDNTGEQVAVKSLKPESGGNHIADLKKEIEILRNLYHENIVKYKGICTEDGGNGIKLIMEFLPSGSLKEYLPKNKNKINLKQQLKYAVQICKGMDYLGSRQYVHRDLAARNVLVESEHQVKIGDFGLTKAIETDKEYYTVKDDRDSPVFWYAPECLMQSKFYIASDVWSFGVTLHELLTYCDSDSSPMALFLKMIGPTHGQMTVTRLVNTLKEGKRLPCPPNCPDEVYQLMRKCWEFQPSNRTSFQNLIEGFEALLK
Tyk2, sequence (P29597 whole entry): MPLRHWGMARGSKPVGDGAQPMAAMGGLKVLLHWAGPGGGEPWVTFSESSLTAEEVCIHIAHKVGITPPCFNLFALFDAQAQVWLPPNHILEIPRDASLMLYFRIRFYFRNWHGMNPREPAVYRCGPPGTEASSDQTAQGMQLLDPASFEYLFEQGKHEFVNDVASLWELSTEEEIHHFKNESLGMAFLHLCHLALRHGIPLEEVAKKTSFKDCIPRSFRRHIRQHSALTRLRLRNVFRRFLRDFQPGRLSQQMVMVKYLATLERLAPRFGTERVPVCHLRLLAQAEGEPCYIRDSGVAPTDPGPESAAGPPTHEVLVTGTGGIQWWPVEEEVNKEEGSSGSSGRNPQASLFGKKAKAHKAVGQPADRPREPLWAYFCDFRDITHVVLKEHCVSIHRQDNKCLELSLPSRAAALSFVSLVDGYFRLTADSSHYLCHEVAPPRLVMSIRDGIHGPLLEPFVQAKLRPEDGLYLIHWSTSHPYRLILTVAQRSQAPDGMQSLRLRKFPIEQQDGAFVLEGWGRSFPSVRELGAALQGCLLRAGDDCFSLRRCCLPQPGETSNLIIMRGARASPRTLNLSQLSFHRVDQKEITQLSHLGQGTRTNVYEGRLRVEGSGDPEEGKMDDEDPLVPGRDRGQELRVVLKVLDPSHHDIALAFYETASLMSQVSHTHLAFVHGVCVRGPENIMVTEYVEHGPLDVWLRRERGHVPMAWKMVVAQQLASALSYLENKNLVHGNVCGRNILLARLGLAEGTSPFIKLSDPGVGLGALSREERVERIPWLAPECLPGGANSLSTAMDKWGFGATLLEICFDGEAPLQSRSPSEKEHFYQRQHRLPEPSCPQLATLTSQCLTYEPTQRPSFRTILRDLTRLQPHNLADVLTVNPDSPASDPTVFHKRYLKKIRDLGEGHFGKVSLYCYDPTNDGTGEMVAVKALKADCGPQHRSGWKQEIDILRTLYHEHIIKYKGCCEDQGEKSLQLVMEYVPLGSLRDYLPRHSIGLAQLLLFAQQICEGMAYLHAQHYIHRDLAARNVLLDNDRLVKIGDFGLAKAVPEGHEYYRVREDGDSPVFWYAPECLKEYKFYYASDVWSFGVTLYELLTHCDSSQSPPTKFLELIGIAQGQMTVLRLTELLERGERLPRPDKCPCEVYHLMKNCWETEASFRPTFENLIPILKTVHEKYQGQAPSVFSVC

SMILES	JAK 1 (pKi) (JAK1)	JAK 2 (pKi) (JAK2)	JAK 3 (pKi) (JAK3)	JAK3 (pKi)-JAK1 (pKi) (JAK3; [2])	Tyk 2 (pKi) (Tyk2)	Tall-1 (pIC50) [1, 3]	JAK3 (pKi)-JAK1 (pKi) (JAK3; selectivity, difference of pKi values)	Tall-1 (pIC50) ([1]; IL-2 stimulated pSTAT5 in Tall-1 T cells)
C=CC(=O)N1CC(CCn2c(=O)ccc3cnc(Nc4ccc(N5CCN(C)CC5)c(C)c4)nc32)C1 [Example 166]	E (E represents a pKi value of 7 or below (Ki of 100 nM or above))	E (E represents a pKi value of 7 or below (Ki of 100 nM or above))	A (A represents a pKi value≥10 (Ki≤0.1 nM))	A (A represents a value of 3 or above)	E (E represents a pKi value of 7 or below (Ki of 100 nM or above))	A (A represents a pIC50 value≥7.5 (IC50≤32 nM))	–	–
C=CC(=O)N1CC(CCn2c(=O)ccc3cnc(Nc4ccc(N5CCN(C(=O)NC)CC5)cc4)nc32)C1 [Example 93]	E (E represents a pKi value of 7 or below (Ki of 100 nM or above))	E (E represents a pKi value of 7 or below (Ki of 100 nM or above))	A (A represents a pKi value≥10 (Ki≤0.1 nM))	A (A represents a value of 3 or above)	E (E represents a pKi value of 7 or below (Ki of 100 nM or above))	B (B represents a pC50 value between 6.7 (included) and 7.5 (IC50 between 200 nM and 32 nM))	–	–
C=CC(=O)N1CC(CCn2c(=O)ccc3cnc(Nc4ccc(N5CCN(C6CC6)CC5)cc4)nc32)C1 [Example 118]	E (E represents a pKi value of 7 or below (Ki of 100 nM or above))	E (E represents a pKi value of 7 or below (Ki of 100 nM or above))	B (B represents pKi value between 9 and 10 (Ki between 1 nM and 0.1 nM))	A (A represents a value of 3 or above)	E (E represents a pKi value of 7 or below (Ki of 100 nM or above))	B (B represents a pC50 value between 6.7 (included) and 7.5 (IC50 between 200 nM and 32 nM))	–	–
C=CC(=O)N1CC(CCn2c(=O)ccc3cnc(Nc4ccc(N5CCN(C(C)=O)CC5)nc4)nc32)C1 [Example 183]	E (E represents a pKi value of 7 or below (Ki of 100 nM or above))	E (E represents a pKi value of 7 or below (Ki of 100 nM or above))	A (A represents a pKi value≥10 (Ki≤0.1 nM))	A (A represents a value of 3 or above)	E (E represents a pKi value of 7 or below (Ki of 100 nM or above))	C (C represents a pIC50 value between 6 and 6.7 (IC50 between 1 μM and 200 nM))	–	–
C=CC(=O)N1CCN(CCn2c(=O)ccc3cnc(Nc4ccc(N5CCN(C)CC5)c(F)c4)nc32)CC1 [Example 39]	E (E represents a pKi value of 7 or below (Ki of 100 nM or above))	E (E represents a pKi value of 7 or below (Ki of 100 nM or above))	B (B represents pKi value between 9 and 10 (Ki between 1 nM and 0.1 nM))	A (A represents a value of 3 or above)	E (E represents a pKi value of 7 or below (Ki of 100 nM or above))	B (B represents a pC50 value between 6.7 (included) and 7.5 (IC50 between 200 nM and 32 nM))	–	–
C=CC(=O)N1CCN(CCn2c(=O)ccc3cnc(Nc4ccc(N5CCN(C(=O)N(C)C)CC5)cc4)nc32)CC1 [Example 146]	E (E represents a pKi value of 7 or below (Ki of 100 nM or above))	E (E represents a pKi value of 7 or below (Ki of 100 nM or above))	B (B represents pKi value between 9 and 10 (Ki between 1 nM and 0.1 nM))	A (A represents a value of 3 or above)	E (E represents a pKi value of 7 or below (Ki of 100 nM or above))	B (B represents a pC50 value between 6.7 (included) and 7.5 (IC50 between 200 nM and 32 nM))	–	–
C=CC(=O)N1CCN(CCn2c(=O)ccc3cnc(Nc4cnn(CCN5CCOCC5)c4)nc32)[C@@H](C)C1 [Example 245]	E (E represents a pKi value of 7 or below (Ki of 100 nM or above))	E (E represents a pKi value of 7 or below (Ki of 100 nM or above))	B (B represents pKi value between 9 and 10 (Ki between 1 nM and 0.1 nM))	–	E (E represents a pKi value of 7 or below (Ki of 100 nM or above))	–	A (A represents a value of 3 or above)	B (B represents a pC50 value between 6.7 (included) and 7.5 (IC50 between 200 nM and 32 nM))
C=CC(=O)N1CC(CCn2c(=O)ccc3cnc(Nc4cccc(C(C)N5CCN(C(C)=O)CC5)c4)nc32)C1 (stereo not drawn) [Example 216]	E (E represents a pKi value of 7 or below (Ki of 100 nM or above))	E (E represents a pKi value of 7 or below (Ki of 100 nM or above))	B (B represents pKi value between 9 and 10 (Ki between 1 nM and 0.1 nM))	A (A represents a value of 3 or above)	E (E represents a pKi value of 7 or below (Ki of 100 nM or above))	C (C represents a pIC50 value between 6 and 6.7 (IC50 between 1 μM and 200 nM))	–	–
C=CC(=O)N1CCN(CCn2c(=O)ccc3cnc(Nc4cnn(CCOCC)c4)nc32)[C@@H](C)C1 [Example 229]	E (E represents a pKi value of 7 or below (Ki of 100 nM or above))	E (E represents a pKi value of 7 or below (Ki of 100 nM or above))	B (B represents pKi value between 9 and 10 (Ki between 1 nM and 0.1 nM))	A (A represents a value of 3 or above)	E (E represents a pKi value of 7 or below (Ki of 100 nM or above))	B (B represents a pC50 value between 6.7 (included) and 7.5 (IC50 between 200 nM and 32 nM))	–	–
C=CC(=O)N1CCN(CCn2c(=O)ccc3cnc(Nc4cnn(C)c4)nc32)C(C)(C)C1 [Example 33]	E (E represents a pKi value of 7 or below (Ki of 100 nM or above))	E (E represents a pKi value of 7 or below (Ki of 100 nM or above))	A (A represents a pKi value≥10 (Ki≤0.1 nM))	A (A represents a value of 3 or above)	E (E represents a pKi value of 7 or below (Ki of 100 nM or above))	B (B represents a pC50 value between 6.7 (included) and 7.5 (IC50 between 200 nM and 32 nM))	–	–
C=CC(=O)N1CC(CCn2c(=O)ccc3cnc(Nc4cnn(CC(C)(C)O)c4)nc32)C1 [Example 57]	E (E represents a pKi value of 7 or below (Ki of 100 nM or above))	E (E represents a pKi value of 7 or below (Ki of 100 nM or above))	B (B represents pKi value between 9 and 10 (Ki between 1 nM and 0.1 nM))	A (A represents a value of 3 or above)	E (E represents a pKi value of 7 or below (Ki of 100 nM or above))	C (C represents a pIC50 value between 6 and 6.7 (IC50 between 1 μM and 200 nM))	–	–
C=CC(=O)N1CC(CCn2c(=O)ccc3cnc(Nc4ccc(N5CCN(CC)CC5)cc4)nc32)C1 [Example 114]	E (E represents a pKi value of 7 or below (Ki of 100 nM or above))	E (E represents a pKi value of 7 or below (Ki of 100 nM or above))	A (A represents a pKi value≥10 (Ki≤0.1 nM))	A (A represents a value of 3 or above)	E (E represents a pKi value of 7 or below (Ki of 100 nM or above))	A (A represents a pIC50 value≥7.5 (IC50≤32 nM))	–	–
C=CC(=O)N1CCN(CCn2c(=O)ccc3cnc(Nc4cnn(C5CCN(C)CC5)c4)nc32)[C@@H](C)C1 [Example 231]	E (E represents a pKi value of 7 or below (Ki of 100 nM or above))	E (E represents a pKi value of 7 or below (Ki of 100 nM or above))	B (B represents pKi value between 9 and 10 (Ki between 1 nM and 0.1 nM))	A (A represents a value of 3 or above)	E (E represents a pKi value of 7 or below (Ki of 100 nM or above))	B (B represents a pC50 value between 6.7 (included) and 7.5 (IC50 between 200 nM and 32 nM))	–	–
C=CC(=O)N1CC(CCn2c(=O)ccc3cnc(Nc4cccc(N5CCN(S(=O)(=O)CCOC)CC5)c4)nc32)C1 [Example 122]	E (E represents a pKi value of 7 or below (Ki of 100 nM or above))	E (E represents a pKi value of 7 or below (Ki of 100 nM or above))	B (B represents pKi value between 9 and 10 (Ki between 1 nM and 0.1 nM))	A (A represents a value of 3 or above)	E (E represents a pKi value of 7 or below (Ki of 100 nM or above))	B (B represents a pC50 value between 6.7 (included) and 7.5 (IC50 between 200 nM and 32 nM))	–	–
C=CC(=O)N1CC(CCn2c(=O)ccc3cnc(Nc4cccc(CN5CCN(S(=O)(=O)CCOC)CC5)c4)nc32)C1 [Example 132]	E (E represents a pKi value of 7 or below (Ki of 100 nM or above))	E (E represents a pKi value of 7 or below (Ki of 100 nM or above))	A (A represents a pKi value≥10 (Ki≤0.1 nM))	A (A represents a value of 3 or above)	E (E represents a pKi value of 7 or below (Ki of 100 nM or above))	B (B represents a pC50 value between 6.7 (included) and 7.5 (IC50 between 200 nM and 32 nM))	–	–
